Laboratory results as given in PubChem BioAssay AID1745844 (Carcinogenic Potency Database (CPDB), 2022).
Calls of active or inactive are those of the source. The rule behind the calls is not given here.

Test system: rodent lifetime carcinogenesis bioassay, tumor incidence TD50
Assay: chronic cancer bioassays in animals – CPDB, compiled studies (AID 1745844)

With O=CNc1nc(-c2ccc([N+](=O)[O-])o2)cs1 the TD50 (hamster, strain Syrian Golden, males, in feed, site: forestomach, lesion: squamous-cell papilloma, dosed 48 weeks, study length 70 weeks) was 83.8 mg/kg/day, the carcinogen call (hamster, strain Syrian Golden, males, in feed, site: urinary bladder, lesion: several types, types named in the paper, dosed 48 weeks, study length 70 weeks) was “positive” and the TD50 (hamster, strain Syrian Golden, males, in feed, site: urinary bladder, lesion: squamous-cell carcinoma, dosed 48 weeks, study length 70 weeks) was 54 mg/kg/day. It also gave a TD50 (mouse, strain Charles River CD1, females, in feed, site: any site (literature study), lesion: several types, types named in the paper, dosed 36 weeks, study length 68 weeks) of 18.7 mg/kg/day, a TD50 (mouse, strain Charles River CD1, females, in feed, site: lung, lesion: adenoma, dosed 36 weeks, study length 68 weeks) of 1120 mg/kg/day and a TD50 (mouse, strain Charles River CD1, females, in feed, site: urinary bladder, lesion: spindle-cell tumor, dosed 36 weeks, study length 68 weeks) of 128 mg/kg/day. It also gave a TD50 (mouse, strain Charles River CD1, females, in feed, site: urinary bladder, lesion: squamous-cell carcinoma, dosed 36 weeks, study length 68 weeks) of 128 mg/kg/day, a TD50 (mouse, strain Charles River CD1, females, in feed, site: urinary bladder, lesion: transitional-cell carcinoma, dosed 36 weeks, study length 68 weeks) of 33.3 mg/kg/day and a TD50 (mouse, strain Charles River CD1, males, in feed, site: any site (literature study), lesion: several types, types named in the paper, dosed 40 weeks, study length 77 weeks) of 21.5 mg/kg/day. For the same compound, the TD50 (mouse, strain Charles River CD1, males, in feed, site: urinary bladder, lesion: spindle-cell tumor, dosed 40 weeks, study length 77 weeks) was 97.1 mg/kg/day, the TD50 (mouse, strain Charles River CD1, males, in feed, site: urinary bladder, lesion: squamous-cell carcinoma, dosed 40 weeks, study length 77 weeks) was 250 mg/kg/day and the TD50 (mouse, strain Charles River CD1, males, in feed, site: urinary bladder, lesion: transitional-cell carcinoma, dosed 40 weeks, study length 77 weeks) was 30.5 mg/kg/day. The TD50 (mouse, strain NMRI, females, by gavage, site: any site (literature study), lesion: benign tumor, dosed 68 weeks, study length 75 weeks) was 69.4 mg/kg/day, the TD50 (mouse, strain NMRI, females, by gavage, site: any site (literature study), lesion: malignant tumor, dosed 68 weeks, study length 75 weeks) was 59.5 mg/kg/day and the TD50 (mouse, strain NMRI, females, by gavage, site: forestomach, lesion: papilloma, dosed 68 weeks, study length 75 weeks) was 164 mg/kg/day. It also gave a TD50 (mouse, strain NMRI, females, by gavage, site: forestomach, lesion: squamous-cell carcinoma, dosed 68 weeks, study length 75 weeks) of 139 mg/kg/day, a TD50 (mouse, strain NMRI, females, by gavage, site: liver, lesion: malignant tumor, dosed 68 weeks, study length 75 weeks) of 2390 mg/kg/day and a TD50 (mouse, strain NMRI, females, by gavage, site: stomach, glandular, lesion: malignant tumor, dosed 68 weeks, study length 75 weeks) of 944 mg/kg/day. For the same compound, the TD50 (mouse, strain Swiss, females, in feed, site: all sites, lesion: leukemia, dosed 33 weeks, study length 52 weeks) was 47.6 mg/kg/day, the TD50 (mouse, strain Swiss, females, in feed, site: all sites, lesion: leukemia, dosed 46 weeks, study length 53 weeks) was 55.4 mg/kg/day and the TD50 (mouse, strain Swiss, females, in feed, site: all sites, lesion: lymphocytic leukemia, dosed 46 weeks, study length 66 weeks) was 78.3 mg/kg/day. For the same compound, the TD50 (mouse, strain Swiss, females, in feed, site: forestomach, lesion: squamous-cell papilloma, dosed 46 weeks, study length 66 weeks) was 235 mg/kg/day, the TD50 (mouse, strain Swiss, females, in feed, site: lung, lesion: alveolar-cell adenoma, dosed 33 weeks, study length 52 weeks) was 208 mg/kg/day and the TD50 (mouse, strain Swiss, females, in feed, site: lung, lesion: alveolar-cell carcinoma, dosed 46 weeks, study length 66 weeks) was 86.4 mg/kg/day. For the same compound, the TD50 (mouse, strain Swiss, females, in feed, site: lung, lesion: carcinoma, dosed 46 weeks, study length 53 weeks) was 163 mg/kg/day, the TD50 (mouse, strain Swiss, females, in feed, site: urinary bladder, lesion: carcinoma, dosed 33 weeks, study length 52 weeks) was 19.8 mg/kg/day and the TD50 (mouse, strain Swiss, females, in feed, site: urinary bladder, lesion: one or several types, types not named, dosed 46 weeks, study length 53 weeks) was 18.2 mg/kg/day. It also gave a TD50 (mouse, strain Swiss, females, in feed, site: urinary bladder, lesion: transitional-cell carcinoma, dosed 46 weeks, study length 66 weeks) of 7.72 mg/kg/day, a TD50 (rat, strain Fischer 344, males, in feed, site: urinary bladder, lesion: carcinoma, dosed 30 weeks, study length 104 weeks) of 3.18 mg/kg/day and a TD50 (rat, strain Fischer 344, males, in feed, site: urinary bladder, lesion: papillary carcinoma, dosed 30 weeks, study length 52 weeks) of 5.92 mg/kg/day. The TD50 (rat, strain Fischer 344, males, in feed, site: urinary bladder, lesion: several types, types named in the paper, dosed 30 weeks, study length 52 weeks) was 1.31 mg/kg/day, the TD50 (rat, strain Fischer, males, in feed, site: liver, lesion: hyperplastic nodule, dosed 36 weeks, study length 74 weeks) was 263 mg/kg/day and the TD50 (rat, strain Fischer, males, in feed, site: urinary bladder, lesion: carcinoma, invasive, dosed 36 weeks, study length 74 weeks) was 9.74 mg/kg/day. For the same compound, the TD50 (rat, strain Fischer, males, in feed, site: urinary bladder, lesion: carcinoma, invasive, dosed 77 weeks, study length 77 weeks) was 18.1 mg/kg/day, the TD50 (rat, strain Fischer, males, in feed, site: urinary bladder, lesion: carcinoma, noninvasive, dosed 36 weeks, study length 74 weeks) was 60.5 mg/kg/day and the TD50 (rat, strain Fischer, males, in feed, site: urinary bladder, lesion: carcinoma, noninvasive, dosed 77 weeks, study length 77 weeks) was 195 mg/kg/day. For the same compound, the TD50 (rat, strain Fischer, males, in feed, site: urinary bladder, lesion: carcinoma, dosed 36 weeks, study length 74 weeks) was 4.51 mg/kg/day, the carcinogen call (rat, strain Fischer, males, in feed, site: urinary bladder, lesion: carcinoma, dosed 72 weeks, study length 72 weeks) was “positive” and the TD50 (rat, strain Fischer, males, in feed, site: urinary bladder, lesion: carcinoma, dosed 77 weeks, study length 77 weeks) was 9.87 mg/kg/day. For the same compound, the TD50 (rat, strain Sprague-Dawley, females, in feed, site: urinary bladder, lesion: papillary carcinoma, dosed 26 weeks, study length 70 weeks) was 48.6 mg/kg/day, the TD50 (rat, strain Sprague-Dawley, females, in feed, site: urinary bladder, lesion: papillary carcinoma, dosed 46 weeks, study length 70 weeks) was 82.7 mg/kg/day and the carcinogen call (rat, strain Sprague-Dawley, females, in feed, site: urinary bladder, lesion: several types, types named in the paper, dosed 26 weeks, study length 70 weeks) was “positive”. The TD50 (rat, strain Sprague-Dawley, females, in feed, site: urinary bladder, lesion: several types, types named in the paper, dosed 46 weeks, study length 63 weeks) was 5.07 mg/kg/day, the carcinogen call (rat, strain Sprague-Dawley, females, in feed, site: urinary bladder, lesion: several types, types named in the paper, dosed 46 weeks, study length 70 weeks) was “positive” and the carcinogen call (rat, strain Sprague-Dawley, females, in feed, site: urinary bladder, lesion: transitional-cell carcinoma, dosed 26 weeks, study length 70 weeks) was “positive”. The carcinogen call (rat, strain Sprague-Dawley, females, in feed, site: urinary bladder, lesion: transitional-cell carcinoma, dosed 46 weeks, study length 70 weeks) was “positive”, the carcinogen call (rat, strain Sprague-Dawley, males, in feed, site: urinary bladder, lesion: transitional-cell carcinoma, dosed 26 weeks, study length 52 weeks) was “positive” and the carcinogen call (rat, strain Sprague-Dawley, males, in feed, site: urinary bladder, lesion: transitional-cell carcinoma, dosed 46 weeks, study length 52 weeks) was “positive”. For the same compound, the carcinogen call (rat, strain Wistar, females, in feed, site: urinary bladder, lesion: transitional-cell carcinoma, dosed 34 weeks, study length 52 weeks) was “positive”.
With C=Cc1cccc(C)c1 the carcinogen call (mouse, strain B6C3F1, females, inhaled, site: any site (literature study), lesion: several types, types named in the paper, dosed 103 weeks, study length 104 weeks) was “negative (inactive)”, the TD50 (mouse, strain B6C3F1, females, inhaled, site: lung, lesion: alveolar/bronchiolar adenoma + alveolar/bronchiolar carcinoma, dosed 103 weeks, study length 104 weeks) was 750 mg/kg/day and the carcinogen call (mouse, strain B6C3F1, males, inhaled, site: any site (literature study), lesion: several types, types named in the paper, dosed 103 weeks, study length 104 weeks) was “negative (inactive)”. For the same compound, the TD50 (rat, strain Fischer 344, females, inhaled, site: any site (literature study), lesion: several types, types named in the paper, dosed 103 weeks, study length 104 weeks) was 312 mg/kg/day (inactive) and the carcinogen call (rat, strain Fischer 344, males, inhaled, site: any site (literature study), lesion: several types, types named in the paper, dosed 103 weeks, study length 104 weeks) was “negative (inactive)”.
With CCOC(=O)/C=C\C(=O)OCC the carcinogen call (rat, strain F344/DuCrj, males, in feed, site: forestomach, lesion: one or several types, types not named, dosed 51 weeks, study length 52 weeks) was “negative (inactive)”, the TD50 (rat, strain F344/DuCrj, males, in feed, site: forestomach, lesion: squamous-cell papilloma, dosed 104 weeks, study length 104 weeks) was 1070 mg/kg/day and the carcinogen call (rat, strain F344/DuCrj, males, in feed, site: stomach, glandular, lesion: one or several types, types not named, dosed 51 weeks, study length 52 weeks) was “negative (inactive)”.
With Cc1ccc2c(c1N)C(=O)c1ccccc1C2=O the TD50 (mouse, strain B6C3F1, females, in feed, site: liver, lesion: hepatocellular adenoma + hepatocellular carcinoma + neoplastic nodule, dosed 70 weeks, study length 97 weeks) was 174 mg/kg/day, the TD50 (mouse, strain B6C3F1, females, in feed, site: liver, lesion: hepatocellular carcinoma + neoplastic nodule, dosed 70 weeks, study length 97 weeks) was 174 mg/kg/day and the carcinogen call (mouse, strain B6C3F1, males, in feed, site: any site (literature study), lesion: several types, types named in the paper, dosed 70 weeks, study length 97 weeks) was “negative (inactive)”. For the same compound, the TD50 (rat, strain Fischer 344, females, in feed, site: liver, lesion: hepatocellular adenoma + hepatocellular carcinoma + neoplastic nodule, dosed 78 weeks, study length 104 weeks) was 115 mg/kg/day, the TD50 (rat, strain Fischer 344, females, in feed, site: liver, lesion: hepatocellular carcinoma + neoplastic nodule, dosed 78 weeks, study length 104 weeks) was 115 mg/kg/day and the TD50 (rat, strain Fischer 344, females, in feed, site: liver, lesion: hepatocellular carcinoma, dosed 78 weeks, study length 104 weeks) was 182 mg/kg/day. For the same compound, the TD50 (rat, strain Fischer 344, males, in feed, site: any site (literature study), lesion: several types, types named in the paper, dosed 78 weeks, study length 104 weeks) was 64.4 mg/kg/day, the TD50 (rat, strain Fischer 344, males, in feed, site: kidney + liver, lesion: adenocarcinoma, NOS + tubular-cell adenoma + tubular-cell adenocarcinoma + hepatocellular carcinoma + neoplastic nodule, dosed 78 weeks, study length 104 weeks) was 34.1 mg/kg/day and the TD50 (rat, strain Fischer 344, males, in feed, site: kidney, lesion: adenocarcinoma, NOS + tubular-cell adenocarcinoma, dosed 78 weeks, study length 104 weeks) was 441 mg/kg/day. For the same compound, the TD50 (rat, strain Fischer 344, males, in feed, site: kidney, lesion: adenocarcinoma, NOS + tubular-cell adenoma + tubular-cell adenocarcinoma, dosed 78 weeks, study length 104 weeks) was 131 mg/kg/day, the TD50 (rat, strain Fischer 344, males, in feed, site: kidney, lesion: tubular-cell adenoma, dosed 78 weeks, study length 104 weeks) was 196 mg/kg/day and the TD50 (rat, strain Fischer 344, males, in feed, site: liver, lesion: hepatocellular adenoma + hepatocellular carcinoma + neoplastic nodule, dosed 78 weeks, study length 104 weeks) was 39.9 mg/kg/day. It also gave a TD50 (rat, strain Fischer 344, males, in feed, site: liver, lesion: hepatocellular carcinoma + neoplastic nodule, dosed 78 weeks, study length 104 weeks) of 39.9 mg/kg/day, a TD50 (rat, strain Fischer 344, males, in feed, site: liver, lesion: hepatocellular carcinoma, dosed 78 weeks, study length 104 weeks) of 150 mg/kg/day and a TD50 (rat, strain Fischer 344, males, in feed, site: pituitary gland, lesion: adenoma, NOS + chromophobe adenoma, dosed 78 weeks, study length 104 weeks) of 136 mg/kg/day. The TD50 (rat, strain Fischer 344, males, in feed, site: thyroid gland, lesion: c-cell adenoma + c-cell carcinoma, dosed 78 weeks, study length 104 weeks) was 283 mg/kg/day.
CNc1ncnc2c1ncn2[C@@H]1O[C@H](CO)[C@@H](O)[C@H]1O was tested, and the TD50 (mouse, strain Swiss CD-1, females, in drinking water, site: liver, lesion: several types, types named in the paper, dosed 34 weeks, study length 115 weeks) was 364 mg/kg/day (inactive), the carcinogen call (mouse, strain Swiss CD-1, females, in drinking water, site: lung, lesion: one or several types, types not named, dosed 34 weeks, study length 115 weeks) was “negative (inactive)” and the TD50 (mouse, strain Swiss CD-1, males, in drinking water, site: liver, lesion: several types, types named in the paper, dosed 34 weeks, study length 118 weeks) was 108 mg/kg/day (inactive). The TD50 (mouse, strain Swiss CD-1, males, in drinking water, site: lung, lesion: one or several types, types not named, dosed 34 weeks, study length 118 weeks) was 55.6 mg/kg/day (inactive).
